The results in this text go back to patent US8846656B2, “Tetrahydropyrido-pyridine and tetrahydropyrido-pyrimidine compounds and use thereof as C5a receptor modulators” (Novartis AG, priority 2011, dated 2014).

The structures appear in SMILES notation. “And” between values parts separate entries of the source, which are not always exact repeats. Equal entries are not always repeated.

Chain of human C5aR (P21730 whole entry): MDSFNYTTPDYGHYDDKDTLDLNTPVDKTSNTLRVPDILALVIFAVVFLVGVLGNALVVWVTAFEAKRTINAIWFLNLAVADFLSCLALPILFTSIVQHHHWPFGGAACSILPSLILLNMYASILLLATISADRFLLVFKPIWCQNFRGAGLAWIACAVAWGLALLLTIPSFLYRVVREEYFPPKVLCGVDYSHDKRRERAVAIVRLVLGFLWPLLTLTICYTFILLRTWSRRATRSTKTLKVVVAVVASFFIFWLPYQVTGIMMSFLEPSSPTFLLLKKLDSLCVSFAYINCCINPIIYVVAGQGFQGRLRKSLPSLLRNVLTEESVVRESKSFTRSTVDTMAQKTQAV

This assay addresses human C5aR (Homo sapiens (Human), UniProt P21730). Nature of the assay: FLIPR assay: inhibition of C5a-mediated calcium mobilization. The format is cell-based. The settings on record: stable cell line over expressing human C5aR & Gα15, human C5a at EC50 (0.1-0.25 nM). As to the method: Compounds were tested for their ability to inhibit C5a-mediated calcium mobilization using a stable cell line over expressing the human C5aR & the Gα15 protein on the FLIPR (Fluorescent Imaging Plate Reader) Tetra system. Cells were maintained in culture media containing DMEM (Dulbecco's Modified Eagle Medium) with 4.5 g/L glucose, 10% fetal bovine serum, 100 U/mL, 1× non-essential amino acid, and 250 μg/mL G418 (Geneticin). Prior to testing of compounds, cells were plated at 10,000 cells/well in clear bottom 384-well black plate, and incubated overnight at 37° C. with 5% CO2. On the day of experiment, culture media was removed, and replaced with assay buffer HBSS (Hanks' Balanced Salt Solution) with 20 mM HEPES (4-(2-hydroxyethyl)-1-piperazineethanesulfonic acid) and 0.1% BSA (bovine serum albumin) BSA containing calcium 5 dye (Molecular Devices) and 2.5 mM probenecid. After 1 hour incubation at 37° C., 5% CO2 for 60 min, cells were pre-incubated with compounds for 30 minutes at room temperature, in 1% DMSO (dimethyl sulfoxide).
For orientation: Calcium flux is commonly read through the fluorescence of an indicator in the cells.
As to `COc1ccc(C)c(N2CCc3nc(-c4c(C)ccc5[nH]ncc45)cc(C)c3C2)c1` [Example 46-C], the IC50 (usually the concentration that inhibits the measured activity by half) is 25 nM. As for `COCCCOc1nc(-c2c(C)cccc2C)nc2c1CN(c1cc(C(C)C)ccc1C)CC2` [Example 39-D, 2-(2,6-Dimethylphenyl)-6-(5-isopropyl-2-methylphenyl)-4-(3-methoxypropoxy)-5,6,7,8-tetrahydropyrido[4,3-d]pyrimidine], the figure is 74 nM; as for `CNc1nc(-c2cccc3[nH]cc(C)c23)nc2c1CN(c1cc(C(C)C)ccc1C)CC2` [Example 17-AJ, 6-(5-isopropyl-2-methylphenyl)-N-methyl-2-(3-methyl-1H-indol-4-yl)-5,6,7,8-tetrahydropyrido[4,3-d]pyrimidin-4-amine], 94 nM; as for `Cc1ccc(C(C)C)cc1N1CCc2nc(-c3cccc4[nH]nc(C)c34)cc(C)c2C1` [Example 41-E, 6-(5-isopropyl-2-methylphenyl)-4-methyl-2-(3-methyl-1H-indazol-4-yl)-5,6,7,8-tetrahydro-1,6-naphthyridine], 21 nM. The same measure for `[2H]C1([2H])c2c(C)cc(-c3c(C)cnc4[nH]ccc34)nc2CCN1c1cc(C(C)C)ccc1C` [Example 43-D, 6-(5-isopropyl-2-methylphenyl)-4-methyl-2-(5-methyl-1H-pyrrolo[2,3-b]pyridin-4-yl)-5,6,7,8-tetrahydro(5,5-^2H2)-1,6-naphthyridine]: 802 nM; for `COc1ccc(Cl)cc1-c1nc2c(c(N3CCCC(C)(C)C3)n1)CN(c1cc(C(C)C)ccc1C)CC2` [Example 19-Q, 2-(5-chloro-2-methoxyphenyl)-4-(3,3-dimethylpiperidin-1-yl)-6-(5-isopropyl-2-methylphenyl)-5,6,7,8-tetrahydropyrido[4,3-d]pyrimidine]: 112 nM; for `CO[C@@H]1CCN(c2nc(-c3c(C)ccc4[nH]nc(C)c34)nc3c2CN(c2c(Cl)c(C(F)F)nn2C)CC3)CC1(C)C` [Example 55-I, (R)-6-(4-chloro-3-(difluoromethyl)-1-methyl-1H-pyrazol-5-yl)-2-(3,5-dimethyl-1H-indazol-4-yl)-4-(4-methoxy-3,3-dimethylpiperidin-1-yl)-5,6,7,8-tetrahydropyrido[4,3-d]pyrimidine]: 1 nM. Consider `CO[C@@H]1CCN(c2nc(-c3cccc4[nH]cc(C)c34)nc3c2CN(c2cc(C(C)C)ccc2C)CC3)CC1(C)C` [Example 17-AM, (R)-6-(5-Isopropyl-2-methylphenyl)-4-(4-methoxy-3,3-dimethylpiperidin-1-yl)-2-(3-methyl-1H-indol-4-yl)-5,6,7,8-tetrahydropyrido[4,3-d]pyrimidine], for which the IC50 was determined as 2 nM.

For `Cc1ccc(C(C)C)cc1N1CCc2nc(-c3cccc4[nH]cc(C)c34)nc(N3CCC(O)C(C)(C)C3)c2C1` (stereo not drawn) [Example 17-AI, l-(6-(5-isopropyl-2-methylphenyl)-2-(3-methyl-1H-indol-4-yl)-5,6,7,8-tetrahydropyrido[4,3-d]pyrimidin-4-yl)-3,3-dimethylpiperidin-4-ol], the IC50 was determined as 19 nM. Regarding `[2H]C1([2H])c2c(C)cc(-c3c(CC)cccc3CC)nc2CC(C)N1c1cc(C(C)C)ccc1C` (single isomer, unassigned) [Example 42-K, 2-(2,6-diethylphenyl)-6-(5-isopropyl-2-methylphenyl)-4,7-dimethyl-5,6,7,8-tetrahydro(5,5-^2H2)-1,6-naphthyridine], the IC50 was determined as 217 nM. The same measure for `CO[C@H]1CCN(c2nc(-c3ccccc3C(F)(F)F)nc3c2CN(c2cc(C4CC4)ccc2C)CC3)CC1(C)C` [Example 19-K, (S)-6-(5-cyclopropyl-2-methylphenyl)-4-(4-methoxy-3,3-dimethylpiperidin-1-yl)-2-(2-(trifluoromethyl)phenyl)-5,6,7,8-tetrahydropyrido[4,3-d]pyrimidine]: 65 nM.

Turning to `COc1ccc(Cl)c(-c2cc(C)c3c(n2)CCN(c2cc(C(C)C)ccc2C)C3)c1` [Example 41-F, 2-(2-chloro-5-methoxyphenyl)-6-(5-isopropyl-2-methylphenyl)-4-methyl-5,6,7,8-tetrahydro-1,6-naphthyridine], the IC50 stood at 550 nM. The same measure for `Cc1ccccc1N1CCc2nc(-c3c(C)cccc3C)nc(N3CCOC(C)(C)C3)c2C1` [Example 17-Y, 4-(2-(2,6-dimethylphenyl)-6-(o-tolyl)-5,6,7,8-tetrahydropyrido[4,3-d]pyrimidin-4-yl)-2,2-dimethylmorpholine]: 160 nM. Turning to `Cc1cccc(C)c1-c1nc2c(c(N3CCCC(C)(C)C3)n1)CN(c1cc(C(C)C)nn1C)CC2` [Example 16-I, 2-(2,6-Dimethylphenyl)-4-(3,3-dimethylpiperidin-1-yl)-6-(3-isopropyl-1-methyl-1H-pyrazol-5-yl)-5,6,7,8-tetrdhydropyrido[4,3-d]pyrimidine], the half-maximal inhibitory concentration (IC50) was found to be 48 nM. The same measure for `CCc1cccc(CC)c1-c1cc(C)c2c(n1)CCN(c1nnnn1C)C2` [Example 48, 2-(2,6-Diethylphenyl)-4-methyl-6-(1-methyl-1H-tetrazol-5-yl)-5,6,7,8-tetrahydro-1,6-naphthyridine]: 198 nM; for `[2H]C1([2H])c2c(C)cc(-c3c(CC)cccc3CC)nc2CC(C)N1c1cc(C(C)C)ccc1C` (single isomer, unassigned) [Example 42-L, 2-(2,6-diethylphenyl)-6-(5-isopropyl-2-methylphenyl)-4,7-dimethyl-5,6,7,8-tetrahydro(5,5-^2H2)-1,6-naphthyridine]: 4 nM; for `CCc1cccc(CC)c1-c1cc(C)c2c(n1)CCN(c1ccc(C)cc1C)C2` [Example 40-L, 2-(2,6-diethylphenyl)-6-(2,4-dimethylphenyl)-4-methyl-5,6,7,8-tetrahydro-1,6-naphthyridine]: 180 nM.

Take `CO[C@H]1CCN(c2nc(-c3cccc4cnn(C)c34)nc3c2CN(c2cc(C4(C)COC4)ccc2C)CC3)CC1(C)C` [Example 19-L, (S)-4-(4-methoxy-3,3-dimethylpiperidin-1-yl)-2-(1-methyl-1H-indazol-7-yl)-6-(2-methyl-5-(3-methyloxetan-3-yl)phenyl)-5,6,7,8-tetrahydropyrido[4,3-d]pyrimidine]: the IC50 was 746 nM. As for `Cc1ccc(C(C)C)cc1N1CCc2nc(-c3cccc4[nH]cc(C)c34)nc(N3CCC[C@@H]3CO)c2C1` [Example 17-AZ, (R)-(1-(6-(5-isopropyl-2-methylphenyl)-2-(3-methyl-1H-indol-4-yl)-5,6,7,8-tetrahydropyrido[4,3-d]pyrimidin-4-yl)pyrrolidin-2-yl)methanol], the figure is 39 nM.

In the case of `CCO[C@@H]1CCN(c2nc(-c3c(C)ccc4[nH]nc(C)c34)nc3c2CN(c2c(F)c(C4CC4)nn2C)CC3)CC1(C)C` [Example 56-E, (R)-6-(3-cyclopropyl-4-fluoro-1-methyl-1H-pyrazol-5-yl)-2-(3,5-dimethyl-1H-indazol-4-yl)-4-(4-ethoxy-3,3-dimethylpiperidin-1-yl)-5,6,7,8-tetrahydropyrido[4,3-d]pyrimidine], the IC50 was 2 nM.

`CO[C@@H]1CCN(c2nc(-c3c(C)ccc4[nH]nc(C)c34)nc3c2CN(c2c(Cl)c(C4CC4)nn2C)CC3)CC1(C)C` [Example 55-G, (R)-6-(4-Chloro-3-cyclopropyl-1-methyl-1H-pyrazol-5-yl)-2-(3,5-dimethyl-1H-indazol-4-yl)-4-(4-methoxy-3,3-dimethylpiperidin-1-yl)-5,6,7,8-tetrahydropyrido[4,3-d]pyrimidine]: the half-inhibitory concentration (IC50) is 4 nM and 2 nM.
